Test results from patent publication US7851474B2, “Dipiperazinyl ketones and related analogues” (Neurogen Corporation, priority 2005, dated 2010).
Like-named read-outs stand apart in the source and are kept apart here.

Biological target: T1, chimeric human H3 receptor (Homo sapiens, UniProt Q9Y5N1, E19D)
T1 construct: made in house; host or cells: Sf9 insect cells (baculovirus infection); P2 membrane preparation
Assay: Chimeric human H3 receptor GTP binding assay (agonist-stimulated GTP-gamma35S binding, Example 7)
Type: biochemical
Settings: read-out: Ki
How it was run: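 IC50 values come from non-linear regression of dose-response curves of filter-bound GTP-gamma^35S, counted by scintillation. Membranes were from infected Sf9 cells carrying receptor plus G-protein subunits, 35 μg/tube, with 10 μM GDP present.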

[1] = Table II, "*" in Ki, assay of Example 7
[2] = assay of Example 7, "*" in Ki of Table II
[3] = Table II, assay of Example 7, "*" in Ki
[4] = assay of Example 7, symbol * in column headed Ki of Table II
[5] = Table II "Ki", symbol "*": Ki in the assay of Example 7

T1 sequence (Q9Y5N1 with tags, fused parts or gaps E19D): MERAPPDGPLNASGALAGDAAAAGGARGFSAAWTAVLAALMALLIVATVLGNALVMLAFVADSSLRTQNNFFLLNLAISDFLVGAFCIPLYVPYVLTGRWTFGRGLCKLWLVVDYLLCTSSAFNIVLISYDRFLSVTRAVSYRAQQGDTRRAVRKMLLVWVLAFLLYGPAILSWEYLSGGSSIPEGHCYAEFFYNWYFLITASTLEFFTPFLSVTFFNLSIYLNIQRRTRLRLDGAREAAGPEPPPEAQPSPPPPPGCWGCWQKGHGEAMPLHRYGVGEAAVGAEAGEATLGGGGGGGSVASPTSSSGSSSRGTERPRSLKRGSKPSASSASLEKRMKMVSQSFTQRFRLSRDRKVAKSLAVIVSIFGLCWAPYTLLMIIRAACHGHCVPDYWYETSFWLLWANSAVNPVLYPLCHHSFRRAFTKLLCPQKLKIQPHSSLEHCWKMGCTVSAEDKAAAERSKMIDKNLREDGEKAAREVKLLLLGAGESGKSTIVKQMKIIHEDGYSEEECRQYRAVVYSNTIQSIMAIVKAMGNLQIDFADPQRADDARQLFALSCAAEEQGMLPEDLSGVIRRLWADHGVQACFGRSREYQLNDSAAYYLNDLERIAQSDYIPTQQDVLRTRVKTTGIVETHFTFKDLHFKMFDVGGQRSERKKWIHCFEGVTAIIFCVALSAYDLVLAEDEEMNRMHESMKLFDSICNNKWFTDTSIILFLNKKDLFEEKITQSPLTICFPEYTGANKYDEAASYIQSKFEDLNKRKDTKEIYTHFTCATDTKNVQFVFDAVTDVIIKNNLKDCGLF

## O=C(CN1CCN(c2ccc(-c3ccccc3Oc3ccccc3)cc2)CC1)N1CCN(C2CCC2)CC1 [Compound 719, 1-cyclobutyl-4-{[4-(2′-phenoxybiphenyl-4-yl)piperazin-1-yl]acetyl}piperazine]
[1]
  Ki: < 1000 nM

## C=CCNC(=O)c1ccc(N2CCN(CC(=O)N3CCN(C4CCC4)CC3)CC2)cc1 [Compound 1261, N-allyl-4-{4-[2-(4-cyclobutylpiperazin-1-yl)-2-oxoethyl]piperazin-1-yl}benzamide]
[2]
  Ki: < 1000 nM

## COc1ccc(-c2ccc(N3CCN(CC(=O)N4CCN(C5CCC5)CC4)CC3)nn2)cc1 [Compound 1032, 3-{4-[2-(4-cyclobutylpiperazin-1-yl)-2-oxoethyl]piperazin-1-yl}-6-(4-methoxyphenyl) pyridazine]
[3]
  Ki: < 1000 nM

## CC1CCCCN1C(=O)c1ccc(N2CCN(CC(=O)N3CCN(C4CCC4)CC3)CC2)cc1 (stereo not shown) [Compound 644, 1-cyclobutyl-4-[(4-{4-[(2-methylpiperidin-1-yl)carbonyl]phenyl}piperazin-1-yl)acetyl]piperazine]
[1]
  Ki: < 1000 nM

## CCSc1ccc(C(=O)NC2CCN(CC(=O)N3CCN(C4CCC4)CC3)C2)cc1 (stereo not shown) [Compound 1242, N-{1-[2-(4-cyclobutylpiperazin-1-yl)-2-oxoethyl]pyrrolidin-3-yl}-4-(ethylthio)benzamide]
[2]
  Ki: < 1000 nM

## CCCOc1ccc(-c2cnc(N3CCN(CC(=O)N4CCN(C5CCC5)CC4)CC3)cn2)cc1 [Compound 949, 2-{4-[2-(4-cyclobutylpiperazin-1-yl)-2-oxoethyl]piperazin-1-yl}-5-(4-propoxyphenyl)pyrazine]
[3]
  Ki: < 1000 nM

## O=C(NC1CCN(CC(=O)N2CCN(C3CCC3)CC2)CC1)C1CC2CCC1C2 (stereo not shown) [Compound 1226, N-{1-[2-(4-cyclobutylpiperazin-1-yl)-2-oxoethyl]piperidin-4-yl}bicyclo[2.2.1]heptane-2-carboxamide]
[2]
  Ki: < 1000 nM

## CC(=O)c1ccc(N2CCN(CC(=O)N3CCN(C4CCC4)CC3)[C@H](C)C2)cc1 [Compound 306, 1-(4-{4-[2-(4-cyclobutylpiperazin-1-yl)-2-oxoethyl]-3-methylpiperazin-1-yl}phenyl)ethanone]
[4]
  Ki: < 1000 nM

## CN1C(=O)C2(CCN(CC(=O)N3CCN(C4CCC4)CC3)CC2)c2ccccc21 [Compound 423]
[4]
  Ki: < 1000 nM

## N#Cc1ccc(-c2cnc(N3CCN(CC(=O)N4CCN(C5CCC5)CC4)CC3)cn2)cc1 [Compound 1098, 4-(5-{4-[2-(4-cyclobutylpiperazin-1-yl)-2-oxoethyl]piperazin-1-yl}pyrazin-2-yl)benzonitrile]
[3]
  Ki: < 1000 nM

## O=C(NC1CCCC1)c1cccc(N2CCN(CC(=O)N3CCN(C4CCC4)CC3)CC2)c1 [Compound 1081, 3-{4-[2-(4-cyclobutylpiperazin-1-yl)-2-oxoethyl]piperazin-1-yl}-N-cyclopentylbenzamide]
[3]
  Ki: < 1000 nM

## O=C(CN1CCN(c2ccc(-c3ccc(F)c(F)c3)cc2)CC1)N1CCN(C2CCC2)CC1 [Compound 730, 1-cyclobutyl-4-{[4-(3′,4′-difluorobiphenyl-4-yl)piperazin-1-yl]acetyl}piperazine]
[1]
  Ki: < 1000 nM

## CCC(C)N1CCN(C(=O)CN2CCN(c3ccc(OC)cc3)C(C)C2)CC1 (stereo not shown) [Compound 1113, 4-[2-(4-sec-butylpiperazin-1-yl)-2-oxoethyl]-1-(4-methoxyphenyl)-2-methylpiperazine]
[3]
  Ki: < 1000 nM

## CC(C)CCNC(=O)c1cccc(N2CCN(CC(=O)N3CCN(C4CCC4)CC3)CC2)c1 [Compound 1076, 3-{4-[2-(4-cyclobutylpiperazin-1-yl)-2-oxoethyl]piperazin-1-yl}-N-(3-methylbutyl)benzamide]
[3]
  Ki: < 1000 nM

## O=C(CN1CCN(c2cccc(Cl)c2Cl)CC1)N1CCN(C2CCCC2)CC1 [Compound 831, 1-cyclopentyl-4-{[4-(2,3-dichlorophenyl)piperazin-1-yl]acetyl}piperazine]
[5]
  Ki: < 1000 nM

## CC(C)(C)C(=O)c1ccc(N2CCN(CC(=O)N3CCN(C4CCC4)CC3)CC2)cc1 [Compound 314, 1-(4-{4-[2-(4-cyclobutylpiperazin-1-yl)-2-oxoethyl]piperazin-1-yl}phenyl)-2,2-dimethylpropan-1-one]
[4]
  Ki: < 1000 nM

## CS(=O)(=O)c1ccc(N2CCN(CC(=O)N3CCN(C4CCC4)CC3)CC2)cc1 [Compound 599, 1-cyclobutyl-4-({4-[4-(methylsulfonyl)phenyl]piperazin-1-yl}acetyl)piperazine]
[1]
  Ki: < 1000 nM

## O=C(CN1CCN(c2ccc(-c3ccc(F)c(Cl)c3)cc2)CC1)N1CCN(C2CCC2)CC1 [Compound 297, 1-(3′-chloro-4′-fluorobiphenyl-4-yl)-4-[2-(4-cyclobutylpiperazin-1-yl)-2-oxoethyl]piperazine]
[4]
  Ki: < 1000 nM

## CC(C)(C)CC(=O)NC1CCN(CC(=O)N2CCN(C3CCC3)CC2)CC1 [Compound 1216, N-{1-[2-(4-cyclobutylpiperazin-1-yl)-2-oxoethyl]piperidin-4-yl}-3,3-dimethylbutanamide]
[2]
  Ki: < 1000 nM

## Cc1ccc(-c2cnc(N3CCN(CC(=O)N4CCN(C5CCC5)CC4)CC3)cn2)cc1F [Compound 922, 2-{4-[2-(4-cyclobutylpiperazin-1-yl)-2-oxoethyl]piperazin-1-yl}-5-(3-fluoro-4-methylphenyl)pyrazine]
[5]
  Ki: < 1000 nM

## Cc1ccc(N2CCN(CC(=O)N3CCN(C4CCCC4)CC3)CC2)c(C)c1 [Compound 834, 1-cyclopentyl-4-{[4-(2,4-dimethylphenyl)piperazin-1-yl]acetyl}piperazine]
[5]
  Ki: < 1000 nM

## O=C(CN1CCN(c2ccccc2F)CC1)N1CCN(C2CCC2)CC1 [Compound 708, 1-cyclobutyl-4-{[4-(2-fluorophenyl)piperazin-1-yl]acetyl}piperazine]
[1]
  Ki: < 1000 nM

## CCC(C)N1CCN(C(=O)CN2CCN(c3ccc(Cl)c(OC)c3)CC2)CC1 (stereo not shown) [Compound 877, 1-sec-butyl-4-{[4-(4-chloro-3-methoxyphenyl)piperazin-1-yl]acetyl}piperazine]
[5]
  Ki: < 1000 nM

## CC(C)N1CCN(C(=O)CN2CCN(c3ccc(F)cc3)CC2)CC1 [Compound 361, 1-(4-fluorophenyl)-4-[2-(4-isopropylpiperazin-1-yl)-2-oxoethyl]piperazine]
[4]
  Ki: < 1000 nM

## CC1CC(C)CN(C(=O)c2ccc(N3CCN(CC(=O)N4CCN(C5CCC5)CC4)CC3)cc2)C1 (stereo not shown) [Compound 646, 1-cyclobutyl-4-[(4-{4-[(3,5-dimethylpiperidin-1-yl)carbonyl]phenyl}piperazin-1-yl)acetyl]piperazine]
[1]
  Ki: < 1000 nM

## CC(=O)c1ccc(N2CCN(CC(=O)N3CCN(C4CCC4)CC3)CC2)cc1C(F)(F)F [Compound 461, 1-[4-{4-[2-(4-cyclobutylpiperazin-1-yl)-2-oxoethyl]piperazin-1-yl}-2-(trifluoromethyl)phenyl] ethanone]
"*" in Ki of Table II, assay of Example 7
  Ki: < 1000 nM

## CCOC(=O)c1cccc(-c2cnc(N3CCN(CC(=O)N4CCN(C5CCC5)CC4)CC3)cn2)c1 [Compound 1195, ethyl 3-(5-{4-[2-(4-cyclobutylpiperazin-1-yl)-2-oxoethyl]piperazin-1-yl}pyrazin-2-yl)benzoate]
[2]
  Ki: < 1000 nM

## O=C(CN1CCN(c2cnc(-c3cccc(Cl)c3Cl)cn2)CC1)N1CCN(C2CCC2)CC1 [Compound 967, 2-{4-[2-(4-cyclobutylpiperazin-1-yl)-2-oxoethyl]piperazin-1-yl}-5-(2,3-dichlorophenyl)pyrazine]
[3]
  Ki: < 1000 nM

## COc1ccc(OC)c(-c2ccc(N3CCN(CC(=O)N4CCN(C5CCC5)CC4)CC3)nn2)c1 [Compound 1041, 3-{4-[2-(4-cyclobutylpiperazin-1-yl)-2-oxoethyl]piperazin-1-yl}-6-(2,5-dimethoxyphenyl) pyridazine]
[3]
  Ki: < 1000 nM

## Cc1ccc(N2CCN(CC(=O)N3CCN(C4CCCC4)CC3)CC2)cc1C [Compound 837, 1-cyclopentyl-4-{[4-(3,4-dimethylphenyl)piperazin-1-yl]acetyl}piperazine]
[5]
  Ki: < 1000 nM

## COc1cc(-c2ccc(N3CCN(CC(=O)N4CCN(C5CCC5)CC4)CC3)cc2)cc(OC)c1OC [Compound 725, 1-cyclobutyl-4-{[4-(3′,4′,5′-trimethoxybiphenyl-4-yl)piperazin-1-yl]acetyl}piperazine]
[1]
  Ki: < 1000 nM

## CC(=O)c1ccc(N2C(=O)C3(CCN(CC(=O)N4CCN(C5CCC5)CC4)CC3)c3ccccc32)cc1 [Compound 332, 1-(4-acetylphenyl)-1′-[2-(4-cyclobutylpiperazin-1-yl)-2-oxoethyl]spiro[indole-3,4′-piperidin]-2(1H)-one]
[4]
  Ki: < 1000 nM

## CC(=O)c1ccc(N2CCN(CC(=O)N3CCN(C4CCC4)CC3)CC2)c(F)c1 [Compound 311, 1-(4-{4-[2-(4-cyclobutylpiperazin-1-yl)-2-oxoethyl]piperazin-1-yl}-3-fluorophenyl)ethanone]
[4]
  Ki: < 1000 nM

## Cc1ccc(-c2ccc(N3CCN(CC(=O)N4CCN(C5CCC5)CC4)CC3)nn2)cc1 [Compound 1012, 3-{4-[2-(4-cyclobutylpiperazin-1-yl)-2-oxoethyl]piperazin-1-yl}-6-(4-methylphenyl)pyridazine]
[3]
  Ki: < 1000 nM

## Cc1ccc(-c2cnc(N3CCN(CC(=O)N4CCN(C5CCC5)CC4)CC3)cn2)cc1 [Compound 925, 2-{4-[2-(4-cyclobutylpiperazin-1-yl)-2-oxoethyl]piperazin-1-yl}-5-(4-methylphenyl)pyrazine]
[5]
  Ki: < 1000 nM

## CC(C)c1ccc(C(=O)NC2CCN(CC(=O)N3CCN(C4CCC4)CC3)C2)cc1 (stereo not shown) [Compound 1235, N-{1-[2-(4-cyclobutylpiperazin-1-yl)-2-oxoethyl]pyrrolidin-3-yl)-4-isopropylbenzamide]
[2]
  Ki: < 1000 nM

## O=C(NCC1CC1)c1cccc(N2CCN(CC(=O)N3CCN(C4CCC4)CC3)CC2)c1 [Compound 1073, 3-{4-[2-(4-cyclobutylpiperazin-1-yl)-2-oxoethyl]piperazin-1-yl}-N-(cyclopropylmethyl) benzamide]
[3]
  Ki: < 1000 nM
